The target in the assay is T1, CDK12 complexed with Cyclin K (Homo sapiens, UniProt Q9NYV4).
T1 construct: GST (N)
T1 sequence (Q9NYV4 whole entry): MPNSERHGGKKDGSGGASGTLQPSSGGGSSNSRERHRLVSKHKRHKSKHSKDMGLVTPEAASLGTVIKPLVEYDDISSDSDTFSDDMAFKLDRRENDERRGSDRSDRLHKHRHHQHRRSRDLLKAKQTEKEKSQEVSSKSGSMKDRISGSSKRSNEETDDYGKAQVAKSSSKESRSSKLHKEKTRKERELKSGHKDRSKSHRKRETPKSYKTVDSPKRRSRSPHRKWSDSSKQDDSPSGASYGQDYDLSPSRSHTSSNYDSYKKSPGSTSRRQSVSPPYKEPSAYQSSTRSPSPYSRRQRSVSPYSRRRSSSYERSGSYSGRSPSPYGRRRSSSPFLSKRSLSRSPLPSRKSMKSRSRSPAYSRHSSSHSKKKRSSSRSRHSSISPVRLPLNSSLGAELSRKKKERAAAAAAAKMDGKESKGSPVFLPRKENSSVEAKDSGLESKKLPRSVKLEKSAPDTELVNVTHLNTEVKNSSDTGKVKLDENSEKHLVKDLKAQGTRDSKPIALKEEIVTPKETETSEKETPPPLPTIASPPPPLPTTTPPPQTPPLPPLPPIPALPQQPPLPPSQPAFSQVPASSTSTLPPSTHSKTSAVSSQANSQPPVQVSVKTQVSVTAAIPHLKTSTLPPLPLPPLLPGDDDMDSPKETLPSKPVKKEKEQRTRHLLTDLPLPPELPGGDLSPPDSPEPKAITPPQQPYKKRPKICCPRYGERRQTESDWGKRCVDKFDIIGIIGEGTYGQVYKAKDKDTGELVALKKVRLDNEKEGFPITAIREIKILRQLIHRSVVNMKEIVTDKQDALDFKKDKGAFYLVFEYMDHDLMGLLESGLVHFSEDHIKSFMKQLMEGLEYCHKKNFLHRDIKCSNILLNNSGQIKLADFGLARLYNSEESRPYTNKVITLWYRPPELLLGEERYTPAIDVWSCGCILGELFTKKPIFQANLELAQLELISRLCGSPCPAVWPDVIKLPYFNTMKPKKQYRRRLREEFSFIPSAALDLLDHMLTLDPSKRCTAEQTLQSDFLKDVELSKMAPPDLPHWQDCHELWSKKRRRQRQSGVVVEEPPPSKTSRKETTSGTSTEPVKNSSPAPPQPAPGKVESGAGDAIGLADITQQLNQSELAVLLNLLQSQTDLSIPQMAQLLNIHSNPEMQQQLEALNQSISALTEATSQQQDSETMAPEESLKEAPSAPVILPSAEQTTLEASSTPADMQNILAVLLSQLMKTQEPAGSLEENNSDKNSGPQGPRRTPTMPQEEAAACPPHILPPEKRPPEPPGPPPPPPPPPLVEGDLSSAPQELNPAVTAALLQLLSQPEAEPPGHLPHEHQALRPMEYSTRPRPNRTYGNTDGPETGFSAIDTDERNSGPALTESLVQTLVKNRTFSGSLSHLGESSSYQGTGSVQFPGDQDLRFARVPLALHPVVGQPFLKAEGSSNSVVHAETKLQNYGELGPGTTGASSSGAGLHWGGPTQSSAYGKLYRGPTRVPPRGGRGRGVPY
T1 sequence (O75909 whole entry partner): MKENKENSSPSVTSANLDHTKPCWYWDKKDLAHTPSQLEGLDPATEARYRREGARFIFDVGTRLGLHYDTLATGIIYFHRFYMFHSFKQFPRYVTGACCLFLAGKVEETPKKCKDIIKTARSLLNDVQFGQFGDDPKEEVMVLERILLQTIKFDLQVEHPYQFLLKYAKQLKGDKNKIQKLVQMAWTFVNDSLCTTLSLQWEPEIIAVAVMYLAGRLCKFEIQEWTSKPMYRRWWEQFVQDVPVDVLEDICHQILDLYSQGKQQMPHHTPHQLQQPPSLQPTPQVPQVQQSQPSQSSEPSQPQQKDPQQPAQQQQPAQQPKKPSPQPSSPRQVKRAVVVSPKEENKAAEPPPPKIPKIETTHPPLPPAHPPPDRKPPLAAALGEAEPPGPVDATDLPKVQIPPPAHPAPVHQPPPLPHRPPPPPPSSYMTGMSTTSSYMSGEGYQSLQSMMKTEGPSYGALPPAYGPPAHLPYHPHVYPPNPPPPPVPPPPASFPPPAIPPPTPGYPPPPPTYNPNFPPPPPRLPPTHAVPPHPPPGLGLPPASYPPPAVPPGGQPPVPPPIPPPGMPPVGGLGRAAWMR
Briefly: Alternative CDK Enzymatic Assays (HTRF, pre-incubation with compounds and 1 mM ATP), Example A2. It is filed as biochemical. As to conditions: enzyme pre-incubated with compounds and 1 mM ATP for 60 minutes; reaction 120 minutes at 25° C. Put shortly:
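GST-tagged human CDK12 co-expressed with full-length Cyclin K (baculovirus), pre-incubated 60 min with compounds and 1 mM ATP; reaction started with 1 mM ATP and 50 nM ULight-4E-BP1 peptide, 120 min at 25 °C, pH 7.5 HEPES. EDTA-stopped, Eu-anti-phospho-4E-BP1 HTRF (665/620 nm); IC50 from 3- or 4-parameter fit vs DMSO/no-enzyme controls.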
A general note: In TR-FRET formats the signal depends on donor and acceptor labels being close together.
As for `C=CC(=O)Nc1ccc2c(nc(N3CCC[C@@H](Nc4ncc(C(F)(F)F)cn4)C3)n2C)c1C` [Example 156, (R)—N-(1,4-Dimethyl-2-(3-((5-(trifluoromethyl)pyrimidin-2-yl)amino)piperidin-1-yl)-1H-benzo[d]imidazol-5-yl)acrylamide], the IC50 – broadly, the concentration needed to halve the response being measured – is less than 50 nM.

In the case of `C=CC(=O)N(c1ccc2c(c1)nc(N1CCC[C@@H](Nc3ncc(C(F)(F)F)cn3)C1)n2C)C1CCOC1` (stereo partly drawn) [Example 165, N-(1-Methyl-2-((R)-3-((5-(trifluoromethyl)pyrimidin-2-yl)amino)piperidin-1-yl)-1H-benzo[d]imidazol-5-yl)-N-(tetrahydrofuran-3-yl)acrylamide], the IC50 was less than 50 nM.

Turning to `Cc1cc2c(cc1NC(=O)C#CC(C)(C)O)nc(N1C[C@H](F)C[C@@H](Nc3ncc(C(F)(F)F)cn3)C1)n2C` [Example 113, N-(2-((3R,5R)-3-Fluoro-5-((5-(trifluoromethyl)pyrimidin-2-yl)amino)piperidin-1-yl)-1,6-dimethyl-1H-benzo[d]imidazol-5-yl)-4-hydroxy-4-methylpent-2-ynamide], the IC50 was less than 50 nM.

For `C=CC(=O)N[C@@H]1CCN(c2nccn3c(N4C[C@H](F)C[C@@H](Nc5ncc(C(F)(F)F)cn5)C4)ncc23)C1` [Example 86, N—((R)-1-(3-((3R,5R)-3-Fluoro-5-((5-(trifluoromethyl)pyrimidin-2-yl)amino)piperidin-1-yl)imidazo[1,5-a]pyrazin-8-yl)pyrrolidin-3-yl)acrylamide], the IC50 is 50 to 500 nM.

For the compound `C=CC(=O)Nc1ccc2c(c1)nc(N1CCC[C@@H](Nc3ncc(C(F)(F)F)cn3)C1)n2C` [Example 123, (R)—N-(1-Methyl-2-(3-((5-(trifluoromethyl)pyrimidin-2-yl)amino)piperidin-1-yl)-1H-benzo[d]imidazol-5-yl)acrylamide], the IC50 was less than 50 nM.

The values are drawn from patent publication US12643881B2, “Bicyclic amine CDK12 inhibitors” (Incyte Corporation, priority 2021, dated 2026).
